The values that follow come from patent US20230295068A1, “NOVEL CYCLOALKENONE COMPOUND OR SALT THEREOF” (TAIHO PHARMACEUTICAL CO., LTD., priority 2020, published 2023).

The experiment relates to ND3 neuronal cell line. The experiment in a line: Measurement of nerve growth stimulation effect (neurite bearing assay, neurite length assay, number of cells). The conditions noted are these: 6 hours, relative cell number, DMSO well = 1. The format is cell-based. The protocol:
To evaluate the nerve growth stimulation effect, neurite bearing assay (proportion of neurite-bearing cells) and neurite length assay (neurite length) were analyzed with reference to the method of Topalli et al. (Brain Research 1030 (2004), pp. 116-124).
An ND3 neuronal cell line (European Collection of Authenticated Cell Cultures) was seeded in a DMEM medium containing 10% fetal bovine serum (0.6×10^4 cells/1 mL) in a 24-well plate. 24 hours later, the medium of seeded cells was removed, and a solution in which the compound of the present disclosure that was sequentially diluted in dimethyl sulfoxide (DMSO) was adjusted in DIEM containing 0.1% bovine serum albumin so that the DMSO final concentration was 0.1%, was added to cells (evaluation performed in duplicate). After six hours from the addition, the proportion of neurite-bearing cells (the number of cells having a neurite longer than the diameter of the cell body/number of total cells), and the neurite length per cell were analyzed. The number of total cells, proportion of neurite-bearing cells, and neurite length per cell were analyzed using a MetaMorph Neurite Outgrowth Application Module (Molecular Devices Japan K.K.). The number of cells was defined as the relative cell number, taking the number of cells per well containing DMSO as 1. The relative activity of each compound when the maximum activity of 3-(15-methoxypentadecyl)-2,4,4-trimethylcyclohexa-2-en-1-one (compound 24) in each test was defined as 1 is shown (Table 9). For the compounds for which multiple tests were conducted, the average value was shown. Data with a number of cells of 0.5 or more was also used. Accordingly, if the number of cells was less than 0.5, the neurite length per cell and the proportion of neurite-bearing cells were defined as “-”.

The structures appear in SMILES notation.

Consider `CC1=C(CCCCCCCCCCCCO)C(C)(C)CCC1=O` [Compound 1, 3-(12-hydroxydodecyl)-2,4,4-trimethylcyclohex-2-en-1-one, reference compound], for which the viability (in general, a read-out of living cells in per cent, often relative to untreated cells) at 1 µM worked out at 103%; the viability at 3 µM turned out to be 105%; the viability at 5 µM amounted to 99%; the viability at 10 µM came to 103%. In addition, the viability at 30 µM stood at 99% and the viability at 100 µM came out at 9%.
Consider `CC1=C(CCCCCCCCCCCCCO)C(C)(C)CCC1=O` [Compound 2, 3-(13-hydroxytridecyl)-2,4,4-trimethylcyclohex-2-en-1-one, reference compound], for which the viability at 1 µM was 113%, the viability at 3 µM was 102%, the viability at 5 µM is 96% and the viability at 10 µM was 96%. In addition, the viability at 30 µM was 19% and the viability at 100 µM is 9%.
`CC1=C(CCCCCCCCCCCCCCO)C(C)(C)CCC1=O` [Compound 3, 3-(14-hydroxytetradecyl)-2,4,4-trimethylcyclohex-2-en-1-one, reference compound]: the viability at 1 µM came to 98%, the viability at 3 µM turned out to be 105%, the viability at 5 µM amounted to 110% and the viability at 10 µM amounted to 108%. For the same compound, the viability at 30 µM was determined as 11% and the viability at 100 µM was 13%.
On to `CC1=C(CCCCCCCCCCCCCCCCO)C(C)(C)CCC1=O` [Compound 5, 3-(16-hydroxyhexadecyl)-2,4,4-trimethylcyclohex-2-en-1-one, reference compound], for which the viability at 1 µM amounted to 111%, the viability at 3 µM amounted to 109%, the viability at 5 µM was found to be 105% and the viability at 10 µM came out at 83%. Besides, the viability at 30 µM was 49% and the viability at 100 µM was found to be 40%.
`CC1=C(CCCCCCCCCCCCCCCOC2CCCCO2)C(C)(C)CCC1=O` (stereo not drawn) [Compound 6, 2,4,4-trimethyl-3-(15-((tetrahydro-2H-pyran-2-yl)oxy)pentadecyl)cyclohex-2-en-1-one, reference compound]: the viability at 1 µM turned out to be 97%, the viability at 3 µM stood at 85%, the viability at 5 µM stood at 67% and the viability at 10 µM came to 64%. Besides, the viability at 30 µM is 72% and the viability at 100 µM turned out to be 92%.
Regarding `CC1=C(CCCCCCCCCCCCCCCO)CCCC1=O` [Compound 7, 3-(15-hydroxypentadecyl)-2-methylcyclohex-2-en-1-one, reference compound], the viability at 1 µM came out at 100%, the viability at 3 µM was found to be 100%, the viability at 5 µM is 87% and the viability at 10 µM stood at 86%. The viability at 30 µM turned out to be 17% and the viability at 100 µM stood at 19%.
Take `CC1(C)CCC(=O)C=C1CCCCCCCCCCCCCCCO` [Compound 8, 3-(15-hydroxypentadecyl)-4,4-dimethylcyclohex-2-en-1-one, reference compound]: the viability at 1 µM stood at 101%, the viability at 3 µM worked out at 102%, the viability at 5 µM came out at 98% and the viability at 10 µM came to 93%. Moreover, the viability at 30 µM was found to be 6% and the viability at 100 µM was determined as 9%.
Regarding `COCCCCCCCCCCCCC1=C(C)C(=O)CCC1(C)C` [Compound 11, 3-(12-methoxydodecyl)-2,4,4-trimethylcyclohex-2-en-1-one], the viability at 1 µM was 96%, the viability at 3 µM was 96%, the viability at 5 µM was determined as 83% and the viability at 10 µM turned out to be 82%. Moreover, the viability at 30 µM is 62% and the viability at 100 µM came out at 70%.
`CCOCCCCCCCCCCCCC1=C(C)C(=O)CCC1(C)C` [Compound 12, 3-(12-ethoxydodecyl)-2,4,4-trimethylcyclohex-2-en-1-one]: the viability at 1 µM was 96%, the viability at 3 µM was determined as 90%, the viability at 5 µM was 77% and the viability at 10 µM was found to be 69%. Besides, the viability at 30 µM turned out to be 11% and the viability at 100 µM was 3%.
Consider `CC1=C(CCCCCCCCCCCCOC(C)C)C(C)(C)CCC1=O` [Compound 13, 3-(12-isopropoxydodecyl)-2,4,4-trimethylcyclohex-2-en-1-one], for which the viability at 1 µM came out at 91%, the viability at 3 µM was found to be 87%, the viability at 5 µM worked out at 75% and the viability at 10 µM was found to be 73%. Also, the viability at 30 µM is 34% and the viability at 100 µM was 18%.
Regarding `CCCOCCCCCCCCCCCCC1=C(C)C(=O)CCC1(C)C` [Compound 14, 2,4,4-trimethyl-3-(12-propoxydodecyl)cyclohex-2-en-1-one], the viability at 1 µM came out at 98%, the viability at 3 µM stood at 98%, the viability at 5 µM was determined as 91% and the viability at 10 µM came to 95%. Further, the viability at 30 µM came out at 95% and the viability at 100 µM stood at 75%.
Take `CCCCOCCCCCCCCCCCCC1=C(C)C(=O)CCC1(C)C` [Compound 15, 3-(12-butoxydodecyl)-2,4,4-trimethylcyclohex-2-en-1-one]: the viability at 1 µM worked out at 93%, the viability at 3 µM worked out at 100%, the viability at 5 µM worked out at 95% and the viability at 10 µM amounted to 88%. Moreover, the viability at 30 µM stood at 101% and the viability at 100 µM is 92%.
For the compound `COCCCCCCCCCCCCCC1=C(C)C(=O)CCC1(C)C` [Compound 16, 3-(13-methoxytridecyl)-2,4,4-trimethylcyclohex-2-en-1-one], the viability at 1 µM amounted to 89%, the viability at 3 µM was found to be 88%, the viability at 5 µM was determined as 71% and the viability at 10 µM worked out at 68%. The viability at 30 µM was determined as 69% and the viability at 100 µM was determined as 77%.
On to `CCOCCCCCCCCCCCCCC1=C(C)C(=O)CCC1(C)C` [Compound 17, 3-(13-ethoxytridecyl)-2,4,4-trimethylcyclohex-2-en-1-one], for which the viability at 1 µM amounted to 99%, the viability at 3 µM came out at 105%, the viability at 5 µM came out at 97% and the viability at 10 µM turned out to be 104%. Also, the viability at 30 µM is 72% and the viability at 100 µM is 81%.
Consider `CC1=C(CCCCCCCCCCCCCOC(C)C)C(C)(C)CCC1=O` [Compound 18, 3-(13-isopropoxytridecyl)-2,4,4-trimethylcyclohex-2-en-1-one], for which the viability at 1 µM stood at 116%, the viability at 3 µM came to 106%, the viability at 5 µM came out at 89% and the viability at 10 µM is 97%. The viability at 30 µM was 95% and the viability at 100 µM was 89%.
`CCCOCCCCCCCCCCCCCC1=C(C)C(=O)CCC1(C)C` [Compound 19, 2,4,4-trimethyl-3-(13-propoxytridecyl)cyclohex-2-en-1-one]: the viability at 1 µM is 98%, the viability at 3 µM was 105%, the viability at 5 µM came out at 85% and the viability at 10 µM stood at 88%. Also, the viability at 30 µM is 111% and the viability at 100 µM came out at 105%.
Take `CCCCOCCCCCCCCCCCCCC1=C(C)C(=O)CCC1(C)C` [Compound 20, 3-(13-butoxytridecyl)-2,4,4-trimethylcyclohex-2-en-1-one]: the viability at 1 µM is 110%, the viability at 3 µM stood at 110%, the viability at 5 µM was 96% and the viability at 10 µM came out at 90%. Further, the viability at 30 µM is 113% and the viability at 100 µM amounted to 117%.
In the case of `COCCCCCCCCCCCCCCC1=C(C)C(=O)CCC1(C)C` [Compound 21, 3-(14-methoxytetradecyl)-2,4,4-trimethylcyclohex-2-en-1-one], the viability at 1 µM is 104%, the viability at 3 µM turned out to be 111%, the viability at 5 µM is 102% and the viability at 10 µM stood at 103%. The viability at 30 µM was determined as 82% and the viability at 100 µM stood at 96%.
Turning to `CCOCCCCCCCCCCCCCCC1=C(C)C(=O)CCC1(C)C` [Compound 22, 3-(14-ethoxytetradecyl)-2,4,4-trimethylcyclohex-2-en-1-one], the viability at 1 µM turned out to be 114%, the viability at 3 µM stood at 103%, the viability at 5 µM was 94% and the viability at 10 µM was 103%. The viability at 30 µM was 99% and the viability at 100 µM was 97%.
For the compound `CC1=C(CCCCCCCCCCCCCCOC(C)C)C(C)(C)CCC1=O` [Compound 23, 3-(14-isopropoxytetradecyl)-2,4,4-trimethylcyclohex-2-en-1-one], the viability at 1 µM worked out at 103%, the viability at 3 µM worked out at 112%, the viability at 5 µM amounted to 98% and the viability at 10 µM was 95%. Moreover, the viability at 30 µM turned out to be 98% and the viability at 100 µM came out at 102%.
